Measurements: patent US20240150715A1 (Sciperio, Inc, priority 2022, published 2024)

Columns and labels:
Format in all cases: cell-based
[1] = system: RBCs differentiated from HSCs; assay: Enucleation, maturation and morphology of manufactured RBCs (DRAQ5-, CD235a+; leukofiltration; Leishman stain); settings: for concentration of enucleated cells after leukofiltration: FIG. 6B
Excerpt: FIG. 6 illustrates ferric citrate-treated RBCs enucleate at rates similar to transferrin-treated RBCs.

[2] = system: differentiating HSCs in high density culture; assay: Analysis of culture medium: metabolic waste, LDH release, amino acid consumption; settings: ferric citrate compared with transferrin
[3] = system: differentiating hematopoietic stem cells (HSCs); assay: High-density differentiation of HSCs into RBCs: culture density / proliferation; settings: ferric citrate compared with transferrin, FIG. 5A
Excerpt: (B) Secretion of cellular waste compounds ammonia and lactate is equivalent between ferric citrate and transferrin, indicating similar metabolic rates. (C) Rates of lytic cell death are similar between cultures treated with ferric citrate and transferrin, as is indicated by the release of lactate dehydrogenase (LDH). (D) Amino acid consumption is similar between the two conditions, as is represented by the consumption of alanine and other amino acids.
The medium formulation has specifically been designed for the efficient, high density, in vitro manufacture of RBCs from HSCs in bioreactors. It is formulated to optimally supply certain growth factors at elevated concentrations for rapid HSC expansion and mediated erythropoiesis using a bioreactor (FIG. 1). The formulation has been determined experimentally using the average depletion rates of various factors by differentiating HSCs in high-density culture (FIG. 2), and can be employed in the production of manufactured RBCs both in static culture (e.g. culture flasks) and in continually agitated suspension culture (e.g. bioreactors).
The present inventors have experimentally determined that a concentration range between 1 μg/mL and 500 μg/mL is effective in driving directed HSC differentiation through the stages of erythropoiesis in a manner that is equivalent to that of holo-transferrin (FIG. 4).

Row | Molecule | cell morphology ([1]; Leishman stain, ferric citrate compared with transferrin, FIG. 6C) | concentration of enucleated cells after leukofiltration [1] | difference in overall enucleation ([1]; ferric citrate versus transferrin, after differentiation in optimized medium, FIG. 6A) | secretion of cellular waste compounds ammonia and lactate ([2]; FIG. 5B) | amino acid consumption (alanine and other amino acids) ([2]; FIG. 5D) | effect on HSC density and cumulative population doubling [3]
1 | O=C([O-])CC(O)(CC(=O)[O-])C(=O)[O-].[Fe+3] [ferric citrate, iron (III) citrate] | morphologically similar | 74.8% | ~4% | equivalent | similar | comparable
2 | transferrin: iron-loaded protein holo-transferrin, traditional iron source in HSC culture media |  | 79% |  |  |  | 
